Assay results reported in PMC12867150, “A fungi-derived cyclic peptide enhances Th9-mediated antitumor immunity by targeting ZAP70 and SREBP1” (The Journal of Clinical Investigation, 2025).
Where “and” joins values, the source holds several entries; their conditions need not be identical. Identical values can stand only once.

Columns and labels:
endogenous CD8+ T cells = test: Cytokines and granzyme B/perforin in endogenous CD8+ T cells (Figure 3H, S4D-F); format: in vivo, mouse; design: TNF-α expression / IFN-γ expression / Expression of IFN-g of endogenous CD8⁺ T cells in tumor / Expression of TNF-α of endogenous CD8⁺ T cells in tumor: unit not given here; settings: for Expression of IFN-g of endogenous CD8⁺ T cells in tumor: Supplemental Figure 4D; for Expression of TNF-α of endogenous CD8⁺ T cells in tumor: Supplemental Figure 4E; for Expression of GzmB+Perforin+ of endogenous CD8⁺ T cells in tumor: Supplemental Figure 4F
Experimental: C57BL/6 mice were subcutaneously injected with 5 × 10^5 B16-OVA melanoma cells. Five days after tumor implantation, mice received an intravenous infusion of 2 × 10^6 in vitro–differentiated Th9 cells (cultured for 5 days), which were derived from OT-II CD45.1 donor mice, accompanied by 4 × 10^5 OVA peptide–pulsed DCs via the tail vein. To enhance T cell engraftment and facilitate lymphodepletion, a single intraperitoneal injection of cyclophosphamide (200 mg/kg, Sigma, catalog C0768) was administered 1 day prior to T cell transfer. Mice were euthanized at designated time points for the collection and analysis of spleens, tumor-draining lymph nodes, and tumor tissues.
(§1) Details regarding staining panels (human and mouse), reagents (including clones and catalog numbers), acquisition settings, compensation/controls, and analysis procedures are provided in Supplemental Methods.
BioLegend, Cat. No. 422301 or Mouse TruStain FcX™, BioLegend, Cat. No. 101319) for 10 minutes at 4°C. For surface marker detection, cells were stained with fluorochrome-conjugated monoclonal antibodies in 96-well V-bottom plates and incubated on ice for 30 minutes. After staining, cells were washed twice and resuspended in FACS buffer for analysis.
Prior to intracellular cytokine staining, cells were restimulated for 4 hours with PMA (Absin, Cat. No. abs9107), ionomycin (Sigma-Aldrich, Cat. No. I0634), and brefeldin A (MedChemExpress, Cat. No. HY-16592). For intracellular cytokine staining, cells were first surface-stained as described above, then fixed and permeabilized using the BD Cytofix/Cytoperm™ kit (BD Biosciences, Cat. No. 554714) according to the manufacturer ’s protocol. Intracellular proteins were stained with directly conjugated antibodies targeting IL-9, IL-17a, IL-4, IFN-γ, TNF-α, FOXP3, p-ZAP70, Perforin, and […]
Antibodies used for mouse samples included those against IL-9 (PE, clone RM9A4, Biolegend, Cat. No. 514104), IFN-γ (PE, clone XMG1.2, Biolegend, Cat. No.
Cat. No. 103138), CD4 (APC/Cy7, clone E-AB-F1353UJ, Elabscience, Cat. No.
AF18028), CD8α (PerCP/Cy5.5, clone E-AB-F1104UJ, Elabscience, Cat. No. […]
clone E-AB-F1187UH, Elabscience, Cat. No. AF19854), TNF-α (BV421, clone MP6-XT22, Biolegend, Cat. No. 506328), FOXP3 (PE, clone FJK-16s, eBioscience, Cat. No.
Perforin (APC, clone S16009A, Biolegend, Cat. No. 154303) and Granzyme B (APC, clone QA16A02, Biolegend, Cat. No. 372203). For human samples, antibodies against CD4 (PerCP/Cy5.5, clone RPA-T4, Biolegend, Cat. No. 300530; APC/Cy7, clone OKT4, Biolegend, Cat. No. 317418), CD19 (APC/Cy7, clone SJ25C1, Biolegend, Cat.
No. 363009), IFN-γ (PE, clone 4S.B3, Biolegend, Cat. No. 502509), IL-9 (PE, clone

TNF-α in human Th9 cells = test: Flow cytometry of TNF-α in human Th9 cells (Figure 8G); format: cell-based
Experimental: For Th9 polarization, cultures were supplemented with IL-4 (10 ng/mL, PeproTech, catalog AF-200-04), TGF-β (1 ng/mL), and neutralizing anti–IFN-γ monoclonal antibody (10 μg/mL, clone B27, BioXcell, catalog BE0245). After 3 days of initial culture, cells were either collected for downstream assays or continued in extended culture with refreshed cytokines to maintain lineage commitment without antibodies. Th9 cells were collected at days 4, 5, and 6 for subsequent in vitro assays. For adoptive transfer studies, day 4–cultured Th9 cells were washed and prepared for intravenous injection.
as §1
MH9A4, Biolegend, Cat. No. 507605, PE/Cy7, clone MH9A4, Biolegend, Cat. No. […]
clone Mab11, Biolegend, Cat. No. 502908), Perforin (APC, clone dG9, Biolegend, Cat.
Flow cytometric acquisition was performed using a BD Fortessa or Cytek Aurora cytometer. Data were analyzed with FlowJo software (v10.8.1 or newer). Fluorescence compensation, isotype-matched controls, and fluorescence-minus-one (FMO) controls were applied as appropriate for multicolor panel validation.
Cells were washed twice with PBS and lysed in 1 × lysis buffer (NCM, Cat. No. […]

[1] = endogenous CD8+, spleen, individual mice, n = 4

anteiso-C15 Leu7 surfactin [EpA]
GzmB+ PRF1+ gate number (endogenous CD8+ T cells; CD8+ T cells in tumors, representative flow plot, Figure S4F): 30.0
GzmB and Perforin expression (endogenous CD8+ T cells; [1]): 76.8 and 76 and 70.2 and 67.3
IFN-γ expression (endogenous CD8+ T cells; [1]): 11.6 and 15.2 and 19.5 and 6.9
TNF-α expression (endogenous CD8+ T cells; [1]): 6.15 and 4.55 and 6.06 and 5
TNF-α expression of CD8+ T cells (endogenous CD8+ T cells; spleen, result in words): remained unchanged
granzyme B+ perforin+ CD8+ T cells (endogenous CD8+ T cells; spleen, result in words): pronounced increase
Expression of IFN-g of endogenous CD8⁺ T cells in tumor (endogenous CD8+ T cells; replicate 1): 2162
Expression of IFN-g of endogenous CD8⁺ T cells in tumor (endogenous CD8+ T cells; replicate 2): 2256
Expression of IFN-g of endogenous CD8⁺ T cells in tumor (endogenous CD8+ T cells; replicate 3): 2381
Expression of IFN-g of endogenous CD8⁺ T cells in tumor (endogenous CD8+ T cells; replicate 4): 2246
Expression of TNF-α of endogenous CD8⁺ T cells in tumor (endogenous CD8+ T cells; replicate 1): 989
Expression of TNF-α of endogenous CD8⁺ T cells in tumor (endogenous CD8+ T cells; replicate 2): 542
Expression of TNF-α of endogenous CD8⁺ T cells in tumor (endogenous CD8+ T cells; replicate 3): 1324
Expression of TNF-α of endogenous CD8⁺ T cells in tumor (endogenous CD8+ T cells; replicate 4): 780
Expression of GzmB+Perforin+ of endogenous CD8⁺ T cells in tumor (endogenous CD8+ T cells; replicate 1): 28.2
Expression of GzmB+Perforin+ of endogenous CD8⁺ T cells in tumor (endogenous CD8+ T cells; replicate 2): 30
Expression of GzmB+Perforin+ of endogenous CD8⁺ T cells in tumor (endogenous CD8+ T cells; replicate 3): 29.9
Expression of GzmB+Perforin+ of endogenous CD8⁺ T cells in tumor (endogenous CD8+ T cells; replicate 4): 58.8
TNF-α expression of CD8+ T cells (endogenous CD8+ T cells; tumors, result in words): upregulated TNF-α expression
TNF-α production in human CD4⁺ T cells (flow cytometric analysis) (TNF-α in human Th9 cells; Figure 8G, Th9-polarizing conditions, individual replicates, one per column (n = 4)): 321000 and 314000 and 322000 and 302000
TNF-α expression, human Th9 (TNF-α in human Th9 cells; result in words): higher TNF-α expression
